Where a name gives a salt, the structure may show the parent alone. Read-outs that look alike come from different tables or passages of the source.
Legend:
P. aeruginosa 503-56 = assay: In vivo antibacterial activity (PD50); conditions: Pseudomonas aeruginosa, 50356, sc
S. aureus Smith = assay: In vivo antibacterial activity (PD50); conditions: Staphylococcus aureus, sc
S. faecalis C1 [1] = assay: In vivo antibacterial activity (PD50); conditions: Enterococcus faecalis, C1; sc; Table 9
Experimental: (§2) The results in these Tables and the PD50 's were determined by the procedure set forth on page 160 in Beskid et al., Antimicrobial Agents and Chemotherapy, Vol. 20, No. 2 pp. 159-167 (Aug. 1981) for "in vivo studies".

S. marcescens SM [2] = assay: In vivo antibacterial activity (PD50); conditions: Serratia marcescens; sc; Table 9
Experimental: as §2

S. pyogenes 4 = assay: In vivo antibacterial activity (PD50); conditions: Streptococcus pyogenes, 4, sc, sc, read-out: PD50
E. coli 257 = assay: In vivo antibacterial activity (PD50); conditions: Escherichia coli, 257, sc
S. pneumoniae 6302 = assay: In vivo antibacterial activity (PD50); conditions: Streptococcus pneumoniae, 6302, sc, Table 9
Experimental: as §2

E. aerogenes 8 [3] = assay: In vivo antibacterial activity (PD50)
Experimental: as §2

E. coli R-563 = assay: In vitro antibacterial activity (MIC); type: cell-based; conditions: Escherichia coli, R563, E. coli R-563; read-out: MIC
How it was run: (§1)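 Twofold-style dilution series (128 to 0.008 μg/ml) made in Mueller-Hinton broth, dispensed, then inoculated with 1.5 μl of a 10^-2 overnight-culture dilution. Plates sealed, held overnight at 37° C, inspected with a viewer.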

P. mirabilis 620A = assay: In vitro antibacterial activity (MIC); type: cell-based; conditions: Proteus mirabilis, 620A
How it was run: as §1

K. pneumoniae 503-964 = assay: In vitro antibacterial activity (MIC); type: cell-based; conditions: Klebsiella pneumoniae, 503964; K. pneumoniae 503-964; read-out: MIC
How it was run: as §1

E. cloacae 6951 [4] = assay: In vitro antibacterial activity (MIC); type: cell-based
How it was run: as §1

S. marcescens S5 = assay: In vitro antibacterial activity (MIC); type: cell-based; conditions: Serratia marcescens, S5, S. marcescens S5; read-out: MIC
How it was run: as §1

P. mirabilis 90 = assay: In vitro antibacterial activity (MIC); type: cell-based; conditions: Proteus mirabilis, 90, P. mirabilis 90; read-out: MIC
How it was run: as §1

E. aerogenes 8 [5] = assay: In vitro antibacterial activity (MIC); type: cell-based; conditions: Klebsiella aerogenes; E. aerogenes 8; read-out: MIC
How it was run: as §1

S. marcescens S2 = assay: In vitro antibacterial activity (MIC); type: cell-based; conditions: Serratia marcescens; S. marcescens S2; read-out: MIC
How it was run: as §1

P. mirabilis 190 = assay: In vitro antibacterial activity (MIC); type: cell-based; conditions: Proteus mirabilis, 190, P. mirabilis 190; read-out: MIC
How it was run: as §1

K. pneumoniae A = assay: In vitro antibacterial activity (MIC); type: cell-based; conditions: Klebsiella pneumoniae, K. pneumoniae A; read-out: MIC
How it was run: as §1

K. pneumoniae 8357 = assay: In vitro antibacterial activity (MIC); type: cell-based; conditions: Klebsiella pneumoniae, 8357, K. pneumoniae 8357; read-out: MIC
How it was run: as §1

P. aeruginosa Stone 130 = assay: In vitro antibacterial activity (MIC); type: cell-based; conditions: Pseudomonas aeruginosa, STONE130, read-out: MIC
How it was run: as §1

S. marcescens SM [6] = assay: In vitro antibacterial activity (MIC); type: cell-based; conditions: Serratia marcescens, read-out: MIC
How it was run: as §1

S. aureus 1059B = assay: In vitro antibacterial activity (MIC); type: cell-based; conditions: Staphylococcus aureus, read-out: MIC
How it was run: as §1

P. aeruginosa 8780 = assay: In vitro antibacterial activity (MIC); type: cell-based; conditions: Pseudomonas aeruginosa; P. aeruginosa 8780; read-out: MIC
How it was run: as §1

S. faecalis C1 [7] = assay: In vitro antibacterial activity (MIC); type: cell-based; conditions: Enterococcus faecalis; S. faecalis C1; read-out: MIC
How it was run: as §1

E. cloacae P99 = assay: In vitro antibacterial activity (MIC); type: cell-based; conditions: Enterobacter cloacae, P99, E. cloacae P99
How it was run: as §1

P. aeruginosa 5700 = assay: In vitro antibacterial activity (MIC); type: cell-based; conditions: Pseudomonas aeruginosa, 5700, P. aeruginosa 5700; read-out: MIC
How it was run: as §1

E. coli 503-455 = assay: In vitro antibacterial activity (MIC); type: cell-based
How it was run: as §1

P. vulgaris 100 = assay: In vitro antibacterial activity (MIC); type: cell-based; conditions: Proteus vulgaris; P. vulgaris 100; read-out: MIC
How it was run: as §1

P. aeruginosa 503-820 = assay: In vitro antibacterial activity (MIC); type: cell-based; conditions: Pseudomonas aeruginosa, 503820; P. aeruginosa 503-820; read-out: MIC
How it was run: as §1

P. rettgeri ATCC 9250 = assay: In vitro antibacterial activity (MIC); type: cell-based; conditions: Providencia rettgeri, ATCC9250, P. rettgeri ATCC 9250; read-out: MIC
How it was run: as §1

P. aeruginosa 8710 = assay: In vivo antibacterial activity (PD50); conditions: Pseudomonas aeruginosa, 8710, sc, 2 treatments, Table 10, read-out: PD50
Experimental: as §2

P. aeruginosa 6148B = assay: In vivo antibacterial activity (PD50); conditions: Pseudomonas aeruginosa, sc, 3 treatments, Table 10
Experimental: as §2

E. cloacae 6951 [8] = assay: In vivo antibacterial activity (PD50); conditions: Enterobacter cloacae, 6951, sc, challenge 562 LD50s, 2 treatments, Table 10
Experimental: as §2

P. aeruginosa 6720 = assay: In vivo antibacterial activity (PD50); conditions: Pseudomonas aeruginosa, 6720, sc, challenge 3511 LD50s, 2 treatments, Table 10
Experimental: as §2

P. aeruginosa 6799 = assay: In vivo antibacterial activity (PD50); conditions: Pseudomonas aeruginosa, 6799, sc, sc; challenge 48 LD50s; 2 treatments; Table 10; read-out: PD50
Experimental: as §2

P. aeruginosa 6719 = assay: In vivo antibacterial activity (PD50); conditions: Pseudomonas aeruginosa, 6719, sc, challenge 2249 LD50s, 3 treatments, Table 10
Experimental: as §2

K. pneumoniae HE7 = assay: In vivo antibacterial activity (PD50); conditions: Klebsiella pneumoniae, HE7, sc, challenge 750 LD50s, 2 treatments, Table 10
Experimental: as §2

[9] = P. mirabilis 620A, read-out: MIC
[10] = Enterobacter cloacae, 6951, E. cloacae 6951, read-out: MIC
[11] = Escherichia coli, 503455, E. coli 503-455, read-out: MIC
[12] = challenge 100 LD50s, 2 treatments, Table 10

Compound | MIC (E. coli R-563) | MIC (K. pneumoniae 503-964) | MIC (S. marcescens S5) | MIC (P. mirabilis 90) | MIC (E. aerogenes 8 [5]) | MIC (S. marcescens S2) | MIC (P. mirabilis 190) | MIC (K. pneumoniae A) | MIC (K. pneumoniae 8357) | MIC (P. aeruginosa Stone 130) | MIC (S. marcescens SM [6]) | MIC (S. aureus 1059B) | MIC (P. aeruginosa 8780) | MIC (S. faecalis C1 [7]) | MIC (E. cloacae P99) | MIC (P. aeruginosa 5700) | MIC (P. vulgaris 100) | MIC (P. aeruginosa 503-820) | MIC (P. rettgeri ATCC 9250) | MIC (P. mirabilis 620A; [9]) | further results
CC1(C)S[C@@H]2[C@H](N=CN3CCC(CCCn4ccnc4N)CC3)C(=O)N2[C@H]1C(=O)O [I, [2S-(2alpha,5alpha,6beta)]-6-[[[4-[3-(2-amino-1H-imidazol-1-yl)propyl]piperidinyl]methylene]amino]-3,3-dimethyl-7-oxo-4-thia-1-azabicyclo[3.2.0]hpetane-2-carboxylic acid hydrochloride] | 0.062 mg/L | 0.062 mg/L | 0.25 mg/L | 4 mg/L | 128 mg/L | 0.062 mg/L | 0.125 mg/L | < 0.008 mg/L | 0.062 mg/L | > 128 mg/L | 0.062 mg/L | 64 mg/L | > 128 mg/L | > 128 mg/L | 0.031 mg/L | 0.062 mg/L | 4 mg/L | 128 mg/L | 0.25 mg/L | – | ED50 (P. aeruginosa 503-56; Table 9): > 250 mg/kg; ED50 (S. aureus Smith; Table 9): 61 mg/kg; ED50 (S. faecalis C1 [1]): > 250 mg/kg; ED50 (S. marcescens SM [2]): > 250 mg/kg; ED50 (S. pyogenes 4; Table 9): 11 mg/kg; ED50 (E. coli 257; Table 9): < 0.2 mg/kg; ED50 (S. pneumoniae 6302): 202 mg/kg; ED50 (E. aerogenes 8 [3]; Klebsiella aerogenes, 8, sc, Table 9, read-out: PD50): > 250 mg/kg; MIC (P. mirabilis 620A): 32 mg/L; MIC (E. cloacae 6951 [4]; Enterobacter cloacae, 6951): 8 mg/L; MIC (E. coli 503-455; Escherichia coli, 503455): 1 mg/L
CC1(C)S[C@@H]2[C@H](N=CN3CCC(C4=NCCN4)CC3)C(=O)N2[C@H]1C(=O)O [L, [2S-(2alpha,5alpha,6beta)]-6-[[[4-(4,5-dihydro-1H-imidazol-2-yl)-1-piperidinyl]methylene]amino]-3,3-dimethyl-7-oxo-4-thia-1-azabicyclo[3.2.0]heptane-2-carboxylic acid hydrochloride] | 0.25 mg/L | 2 mg/L | 4 mg/L | 2 mg/L | 32 mg/L | 0.5 mg/L | 0.5 mg/L | 0.25 mg/L | 2 mg/L | > 128 mg/L | 1 mg/L | 64 mg/L | > 128 mg/L | 32 mg/L | 0.25 mg/L | 2 mg/L | 32 mg/L | 128 mg/L | 1 mg/L | > 128 mg/L | MIC (E. cloacae 6951 [4]; [10]): 8 mg/L; MIC (E. coli 503-455; [11]): 4 mg/L
CC1(C)S[C@@H]2[C@H](N=CN3CCC(CC4=NCCN4)CC3)C(=O)N2[C@H]1C(=O)O [M, [2S-(2alpha,5alpha,6beta)]-6-[[[4-[(4,5-dihydro-1H-imidazol-2-yl)methyl]-1-piperidinyl]methylene]amino]-3,3-dimethyl-7-oxo-4-thia-1-azabicyclo[3.2.0]heptane-2-carboxylic acid hydrochloride] | 0.062 mg/L | 0.25 mg/L | 1 mg/L | 0.5 mg/L | 32 mg/L | 0.25 mg/L | 0.5 mg/L | 0.062 mg/L | 1 mg/L | > 128 mg/L | 0.125 mg/L | 32 mg/L | 128 mg/L | 32 mg/L | 0.062 mg/L | 0.125 mg/L | 8 mg/L | 64 mg/L | 0.5 mg/L | > 128 mg/L | ED50 (P. aeruginosa 8710; challenge 10 LD50s): 54 mg/kg; ED50 (P. aeruginosa 8710; challenge 562 LD50s): 59 mg/kg; ED50 (P. aeruginosa 6148B; challenge 4.5 LD50s): < 20 mg/kg; ED50 (P. aeruginosa 6148B; challenge 33 LD50s): < 20 mg/kg; ED50 (E. cloacae 6951 [8]): 15 mg/kg; ED50 (P. aeruginosa 503-56; challenge 4.7 LD50s, 2 treatments, Table 10): 67 mg/kg; ED50 (P. aeruginosa 503-56; [12]): 100 mg/kg; ED50 (S. aureus Smith; challenge 48 LD50s, 2 treatments, Table 10): < 5 mg/kg; ED50 (S. aureus Smith; [12]): 6.7 mg/kg; ED50 (P. aeruginosa 6720): 29 mg/kg; ED50 (P. aeruginosa 6799): > 250 mg/kg; ED50 (S. pyogenes 4; [12]): < 2 mg/kg; ED50 (P. aeruginosa 6719): 34 mg/kg; ED50 (E. coli 257; challenge >10^4 LD50s, 1 treatment, Table 10): 1.5 mg/kg; ED50 (E. aerogenes 8 [3]; Klebsiella aerogenes, 8, sc, read-out: PD50, sc, challenge 24 LD50s, 2 treatments, Table 10): 60 mg/kg; ED50 (K. pneumoniae HE7): 71 mg/kg; MIC (E. cloacae 6951 [4]; [10]): 32 mg/L; MIC (E. coli 503-455; [11]): 2 mg/L

From US4605744A, “Imidazole derivatives” (Hoffmann-La Roche Inc., priority 1985, dated 1986)
